Experimental findings from patent US9096585B2 (Icahn School of Medicine at Mount Sinai, priority 2010, dated 2015) are described below.

In this assay the test system is influenza viruses. The format is cell-based, influenza virus.

`Cc1[nH]c2ccc(-c3nnc(SCC(=O)N4CCCC4)o3)cc2c1C` [Compound A3]: the “generation of A3-resistant influenza viruses” value is on record as “unsuccessful”.
